# Reference: PMC3989207, “Subchronic Toxicological Study of Two Artemisinin Derivatives in Dogs” (PLoS ONE, 2014)
# Read-outs that look alike come from different tables or passages of the source.
# Tests used:
# [1] = set-up: method as in Teja-Isavadharm et al. (1996); details: after oral administration compared with i.m. injection of ARM in an oil-based vehicle; ref Teja-Isavadharm et al. (1996); cited from earlier work
# [2] = set-up: method as in PMID 11060779; details: cited from earlier work
# Dogs = tested on: Dogs; set-up: method as in PMID 8053022, PMID 8053028, PMID 7943542; details: for 4 weeks; cited from earlier work
# beagle dogs [3] = assay: Hematology in the 13-week repeated-dose dog study; type: in vivo
# Procedure: (§1) The first day of treatment was regarded as day one in the study. […] Oral administration was performed about 2 h after feeding. ARM was administered by a bolus intramuscular infusion through a 25-gauge needle at a constant volume of 2 ml kg^−1 once a day into the gluteal and infraspinous muscles. Two dogs of each sex from each group were allowed to recover without further treatment for an additional 4 weeks.
# (§2) Blood samples were collected from the femoral vein of each dog prior to treatment and every 2 weeks after the first day of treatment. Hematology parameters were measured using an automated hematology analyzer (Sysmex, XT-2000iv, Toa Medical Electronics Co. Ltd., Kobe, Japan) using standard methods. Test parameters included hemoglobin (Hb) levels, the hematocrit (Hct) fraction, erythrocyte (RBC) count, leukocyte (WBC) count, neutrophilic granulocyte fraction (NE%), monocyte fraction (MO%), lymphocyte levels (LY%), platelet count (PLT), reticulocyte count (RET%) and RBC morphology. The following clinical chemistry parameters were measured using a Hitachi-7180 Chemistry Analyzer (High-Technologies Corporation, Tokyo, Japan) and standard methods: glucose, blood urea nitrogen, inorganic phosphorus, creatinine, total protein, albumin, calcium, aspartate aminotransferase (AST), alanine aminotransferase, alkaline phosphatase, total bilirubin, creatine kinase (CK), sodium, potassium and chloride.
# The differential granulocytic and erythrocytic series (erythroid, myeloid blast cell count and the red ratio) were determined manually from blood smears.
# [4] = Toxicokinetic analysis of plasma drug levels (HPLC); type: in vivo, dog; details: both sexes, beagle, dog, plasma, other: ART p.o., ARM i.m., 6 mg/kg, ARM i.m.; for AUC: 6 mg kg^−1 daily, ART p.o., dog plasma
# Procedure: as §1
# For toxicokinetic analysis, blood samples were collected on weeks 1, 2, 4, 8 and 13 at 0 (before dosing), 0.5, 1, 2, 4, 8, 12 and 24 h after dosing. Approximately 1 ml blood was drawn from the antebrachial, cephalic or jugular vein of three animals of each sex per time point and deposited into heparinized tubes for immediate centrifugation at 3000 rpm at 4°C for 10 min. The plasma was then immediately transferred to 2 ml polypropylene tubes and stored on dry ice. Samples were stored at −80°C until HPLC analysis.
# beagle dogs [5] = assay: Pathologic (histopathological) examination of organs, brain and cardiac conduction system; type: in vivo, dog
# Procedure: as §1
# Termination of treatment was scheduled to occur on weeks 4, 8 (two interim necropsies) and 13, followed by a 4-week recovery period. For pathological examinations, the animals were euthanized within 24 h of the final drug administration with sodium pentobarbital, followed by exsanguination via the femoral artery. A gross necropsy was performed, including a thorough visual examination of all the internal organs. Weights were obtained for the brain, heart, liver, spleen, lung, kidneys, adrenals, thyroid/parathyroids, thymus, pancreas and ovaries/testes/prostate, and organ-to-body weight ratios were calculated. For each animal, representative samples from approximately 48 organs and tissues were taken and fixed in neutral buffered 10% formalin, except for the sternum, which was retained in Helly’s fixative (1000 ml distilled water, 25 g potassium dichromate, 10 g sodium sulfate, 50 g mercuric chloride, 50 ml 40% formaldehyde). Histopathological sections of all samples were prepared by embedding in paraffin wax, multiple-sectioning and staining with hematoxylin and eosin (HE). Samples of the left ventricular myocardium, right lateral hepatic lobe and right kidney from two animals of each sex from each group were fixed immediately after exsanguination in 2.5% glutaraldehyde, post-fixed in 1.0% osmium tetroxide, and embedded in plastic. Ultrathin liver, kidney and heart sections were examined with a Hitachi H-600 transmission electron microscope (TEM). All other tissues were examined by light microscopy.
# After removal, the cardiac conduction system, including the sinoatrial node (SAN) and atrioventricular node (AVN), were selected by the Palate method. The brain was sectioned at multiple transverse levels to obtain susceptible brain regions. To improve the definition of the brain lesions, toluidine stains were applied on selected duplicate sections, and all preparations were examined under a light microscope. For pathologic examinations, degenerative neurons were evaluated on three randomly selected brain sections. The adjacent fields of neurons in each selected section were counted using a microscope at a magnification of 200×. […] The severity of the neuropathological lesions was defined as follows: the total number of neuropathological lesions per section area yielded a severity score from 0 to 4, where 0 = unaffected, 1 = minimally affected neurons with one degenerative cell per section, 2 = two degenerative cells per section, 3 = three degenerative cells per section and 4 = multiple degenerative areas per section.
# beagle dogs [6] = assay: Clinical chemistry in the 13-week repeated-dose dog study; type: in vivo
# Procedure: as §1, §2
# beagle dogs [7] = assay: Ultra-structural examination of liver, kidney and heart by transmission electron microscopy; type: in vivo, dog; details: weeks 4, 8 and 13; TEM
# Procedure: as §1
# Termination of treatment was scheduled to occur on weeks 4, 8 (two interim necropsies) and 13, followed by a 4-week recovery period. For pathological examinations, the animals were euthanized within 24 h of the final drug administration with sodium pentobarbital, followed by exsanguination via the femoral artery. A gross necropsy was performed, including a thorough visual examination of all the internal organs. Weights were obtained for the brain, heart, liver, spleen, lung, kidneys, adrenals, thyroid/parathyroids, thymus, pancreas and ovaries/testes/prostate, and organ-to-body weight ratios were calculated. For each animal, representative samples from approximately 48 organs and tissues were taken and fixed in neutral buffered 10% formalin, except for the sternum, which was retained in Helly’s fixative (1000 ml distilled water, 25 g potassium dichromate, 10 g sodium sulfate, 50 g mercuric chloride, 50 ml 40% formaldehyde). […]
# beagle dogs [8] = assay: Electrocardiography in the 13-week repeated-dose dog study; type: in vivo; details: 6 mg kg^-1 per day p.o.; weeks 3 and 5 in males, weeks 5–9 in females (p<0.01), late stages (p<0.05)
# Procedure: as §1
# Electrocardiograms were recorded using an Auto Electrocardiogram (ECG-9130P, Nihon Kohden Corporation, Japan). Recordings were taken from each dog, while conscious, every 2 weeks from week-1. Leads I, II, III, aVR, aVL and aVF were utilized. The electrocardiography (ECG) parameters included heart rate, PR, QRS and QT interval, and QRS and T wave amplitudes. As the PQ and QT intervals vary with heart rate, they were adjusted to an RR-interval of 500 ms, corresponding to a heart rate of 120 bpm using the following equation: QT500 = QT – 0.084×(RR – 500).
# [9] = week 2 until week 10 post-treatment, vs control groups (p<0.05)
# [10] = Week 4, 6 mg kg^-1 per day (ART p.o., ARM i.m.)
# [11] = Week 8, 6 mg kg^-1 per day (ART p.o., ARM i.m.)
# [12] = Week 13, 6 mg kg^-1 per day (ART p.o., ARM i.m.)
# [13] = Week 17 (after 4-week recovery)
# [14] = both treated groups, no significant differences
# [15] = Week 13, females, 6 mg kg^-1 per day
smiles,measurement,setting,value
"C[C@H]1[C@@H](O)O[C@@H]2O[C@@]3(C)CC[C@H]4[C@H](C)CC[C@@H]1[C@@]24OO3 [DHA, dihydroartemisinin]",decline of plasma concentrations,[1],declined much faster after oral administration
"CCO[C@H]1O[C@@H]2O[C@@]3(C)CC[C@H]4[C@H](C)CC[C@@H]([C@H]1C)[C@@]24OO3 [ARE, arteether]",solubility character,[2],fat soluble
same,calculated average minimal daily dose necessary to produce toxicity observable by histopathology,Dogs,6 mg kg^−1
"C[C@H]1[C@H](OC(=O)CCC(=O)O)O[C@@H]2O[C@@]3(C)CC[C@H]4[C@H](C)CC[C@@H]1[C@@]24OO3 [ART, artesunate]",decline of plasma concentrations,[1],declined much faster after oral administration
same,solubility character,[2],water soluble
same,Hematology: Hb,"beagle dogs [3]; Week 4, 6 mg kg^-1 per day","↓Hct, ↓Hb"
same,Hematology: Hct,"beagle dogs [3]; Week 4, 6 mg kg^-1 per day","↓Hct, ↓Hb"
same,Hematology: Hb,"beagle dogs [3]; Week 8, 6 mg kg^-1 per day","↓Hct, ↓Hb, ↓MCV"
same,Hematology: Hct,"beagle dogs [3]; Week 8, 6 mg kg^-1 per day","↓Hct, ↓Hb, ↓MCV"
same,Hematology: MCV,"beagle dogs [3]; Week 8, 6 mg kg^-1 per day","↓Hct, ↓Hb, ↓MCV"
same,Hematology: Hb,"beagle dogs [3]; Week 13, 6 mg kg^-1 per day","↓Hct, ↓Hb"
same,Hematology: Hct,"beagle dogs [3]; Week 13, 6 mg kg^-1 per day","↓Hct, ↓Hb"
same,MO%,"beagle dogs [3]; males and females, after weeks 2 and 4 (p<0.05)",significant increases
same,Hb levels,beagle dogs [3]; week 2,corresponding decrease
same,RBC counts,beagle dogs [3]; week 2,decrease
same,LY%,beagle dogs [3]; [9],decreased
same,NE%,beagle dogs [3]; [9],significantly increased
same,WBC count,beagle dogs [3]; [9],significantly increased
same,AUC,"[4]; week 8, read-out: AUC8w",580 ± 211 ng·h/mL
same,AUC,"[4]; week four, read-out: AUC4w",1270 ± 539 ng·h/mL
same,AUC(0-t),[4]; read-out: AUC93D,729 ± 440 ng·h/mL
same,neurotoxicity,beagle dogs [5]; 6 mg kg^-1 per day p.o. for 13 weeks,not observed
same,Cardiac conduction system foci (dogs affected/examined),beagle dogs [5]; [10],0
same,Extramedullary hematopoiesis (dogs affected/examined),beagle dogs [5]; [10],3/4
same,Hepatocyte necrosis (dogs affected/examined),beagle dogs [5]; [10],0
same,Inhibition of erythropoiesis (dogs affected/examined),beagle dogs [5]; [10],2/4
same,Neuronal necrosis (dogs affected/examined),beagle dogs [5]; [10],0
same,Tubular cell degeneration (dogs affected/examined),beagle dogs [5]; [10],2/4
same,Cardiac conduction system foci (dogs affected/examined),beagle dogs [5]; [11],1/4
same,Extramedullary hematopoiesis (dogs affected/examined),beagle dogs [5]; [11],1/4
same,Hepatocyte necrosis (dogs affected/examined),beagle dogs [5]; [11],0
same,Inhibition of erythropoiesis (dogs affected/examined),beagle dogs [5]; [11],0
same,Neuronal necrosis (dogs affected/examined),beagle dogs [5]; [11],0
same,Tubular cell degeneration (dogs affected/examined),beagle dogs [5]; [11],3/4
same,Cardiac conduction system foci (dogs affected/examined),beagle dogs [5]; [12],2/4
same,Extramedullary hematopoiesis (dogs affected/examined),beagle dogs [5]; [12],0
same,Hepatocyte necrosis (dogs affected/examined),beagle dogs [5]; [12],0
same,Inhibition of erythropoiesis (dogs affected/examined),beagle dogs [5]; [12],0
same,Neuronal necrosis (dogs affected/examined),beagle dogs [5]; [12],0
same,Tubular cell degeneration (dogs affected/examined),beagle dogs [5]; [12],0
same,Cardiac conduction system foci (dogs affected/examined),beagle dogs [5]; [13],0
same,Extramedullary hematopoiesis (dogs affected/examined),beagle dogs [5]; [13],0
same,Hepatocyte necrosis (dogs affected/examined),beagle dogs [5]; [13],0
same,Inhibition of erythropoiesis (dogs affected/examined),beagle dogs [5]; [13],0
same,Neuronal necrosis (dogs affected/examined),beagle dogs [5]; [13],0
same,Tubular cell degeneration (dogs affected/examined),beagle dogs [5]; [13],1/4
same,histological examination of sternal bone marrow,beagle dogs [5]; [14],mild inhibition of erythropoiesis and a decreased count of mature erythrocytes
same,spleen histology,beagle dogs [5]; [14],extramedullary hematopoiesis was observed in the spleen
same,histopathological changes in the kidneys,beagle dogs [5]; vs control groups,tubular epithelium vacuolation and necrosis
same,Clinical chemistry (overall),"beagle dogs [6]; Week 8, 6 mg kg^-1 per day",- (“-” = No effect)
same,Clinical chemistry: Alb(F),beagle dogs [6]; [15],"↓TP(F), ↓Alb(F)"
same,Clinical chemistry: TP(F),beagle dogs [6]; [15],"↓TP(F), ↓Alb(F)"
same,serum albumin levels,beagle dogs [6]; weeks 10 and 12,significant decrease
same,"ultra-structural findings in hepatocytes, myocardial cells and proximal tubules in the kidney",beagle dogs [7],Mitochondrial bending and distortion and swollen vacuoles
same,heart rate during treatment,beagle dogs [8],statistically significant decrease
